# Measurements as given in patent publication US4227002A, “Halo-A-23187 derivatives” (Eli Lilly and Company, priority 1978, dated 1980).
# Entries after “also recorded” stand apart in the source; their conditions may differ.
# Legend:
# [1] = tested on: Staphylococcus aureus (H-Heatley strain, NRRL B-314); experiment: antibacterial bioassay (J. E. Westhead); assay type: cell-based
# Excerpt: The compounds of this invention are useful antibacterial agents. In this aspect, these compounds may be used in the same manner in which the parent antibiotic is used, as described in U.S. Pat. No. 3,923,823. A bioassay for the antibacterial activity of A-23187 has been described by J. E. Westhead in Antimicrobial Agents and Chemotherapy 11 (5), 916-918 (1977). The test organism for this bioassay is Staphylococcus aureus (H-Heatley strain, NRRL B-314).
# mice = experiment: acute toxicity in mice, intraperitoneal; assay type: in vivo; conditions: intraperitoneally
# Procedure: (§1) The compounds of the present invention are, in general, less toxic than the parent antibiotic. Table II summarizes the acute toxicities of representative compounds in mice, expressed as LD50, when the compounds are administered intraperitoneally.
# [2] = tested on: isolated guinea-pig atria; experiment: cardiac contractility in isolated guinea-pig atria; conditions: 10^-5 molar
# Excerpt: The compounds of this invention are also potential cardiotonic agents. […] Response to this test is expressed as a percentage of the maximal contractile tension that could be elicited by a challenge dose of norepinephrine (10^-4 M). For a more detailed description of this test, see U.S. Pat. No. 3,985,893. In this test, 4-bromo-A-23187 free acid and its Mg^++ salt, each at a 10^-5 molar concentration, produced mean increases in contractile tension of 48 and 59 percent, respectively.
# Bovine Sperum = conditions: bovine sperm; untreated: 2
# [3] = target: cation transport ATPase in liver mitochondria; experiment: inhibition of cation transport ATPase in liver mitochondria, in vitro; assay type: biochemical
# Excerpt: In yet another aspect, the compounds of this invention are active as inhibitors of the enzyme ATPase. ATPase, an alkali-metal-sensitive enzyme found in cell membranes, is involved in the energy necessary for active transport. "Active transport" refers to the energy-requiring series of operations whereby intracellular and extracellular fluids maintain their compositions. Inhibitors of ATPase reduce the energy required for active transport. Table V summarizes the results of in vitro tests measuring inhibition of cation transport ATPase in liver mitochondria [measured as half effective concentration (Ic 50) in mcg/ml].
# [4] = acute toxicity in mice, intraperitoneal; assay type: in vivo; conditions: mouse, in vivo, ip, intraperitoneally
# Procedure: as §1
# [5] = cited from earlier work
# bovine spermatozoa = experiment: Ca^++ influx induced in bovine spermatozoa, inhibition by Mg^++; assay type: cell-based; conditions: for Ca^++ Influx: bovine spermatozoa
# Excerpt: The compounds of this invention affect ion transport with altered selectivities compared to the parent compound.
# mammalian sperm [6] = conditions: cited from earlier work
# Cuinea Pig Sperm = experiment: effect on acrosome reaction, guinea pig sperm; assay type: cell-based; conditions: untreated: 110
# Excerpt: Table IV summarizes the effect of an illustrative compound of this invention on mammalian sperm motility and acrosome reaction.
# mammalian sperm [7] = conditions: cited from earlier work; remark: listed apart in the source
# [8] = ATPase induced by K^+ monazomycin
smiles,measurement,setting,value
"CNc1c(Br)cc2oc(CC3OC4(CCC3C)OC(C(C)C(=O)c3[nH]c(Br)c(Br)c3Br)C(C)CC4C)nc2c1C(=O)O (stereo not drawn) [6-bromo-5-(methylamino)-2-[[3β,9α,11β-trimethyl-8-[1α-methyl-2-oxo-2-(3,4,5-tribromo-1H-pyrrol-2-yl)ethyl]-1,7-dioxaspiro[5.5]undec-2β-yl]methyl]-4-benzoxazolecarboxylic acid]",Bioassay,[1],585 µg/mL
CNc1ccc2oc(CC3OC4(CCC3C)OC(C(C)C(=O)c3cc(Cl)c[nH]3)C(C)CC4C)nc2c1C(=O)[O-].CNc1ccc2oc(CC3OC4(CCC3C)OC(C(C)C(=O)c3cc(Cl)c[nH]3)C(C)CC4C)nc2c1C(=O)[O-].[Mg+2] (stereo not drawn) [4-chloro-A-23187 (Mg complex)],LD50,mice,29.8 mg/kg × 1
CNc1ccc2oc(CC3OC4(CCC3C)OC(C(C)C(=O)c3cc(Br)c[nH]3)C(C)CC4C)nc2c1C(=O)[O-].CNc1ccc2oc(CC3OC4(CCC3C)OC(C(C)C(=O)c3cc(Br)c[nH]3)C(C)CC4C)nc2c1C(=O)[O-].[Mg+2] (stereo not drawn) [4-bromo-A-23187 (Mg complex)],LD50,mice,18.75 mg/kg × 1
same,"mean increase in contractile tension, percentage of the maximal contractile tension elicited by norepinephrine (10^-4 M)",[2],59%
"CNc1ccc2oc(CC3OC4(CCC3C)OC(C(C)C(=O)c3ccc[nH]3)C(C)CC4C)nc2c1C(=O)O (stereo not drawn) [A-23187 (free acid), reference compound]",Motility Index,Bovine Sperum,4
same,half effective concentration (Ic 50),[3]; ATPase induced by CaCl2,0.5 µg/mL
same,half effective concentration (Ic 50),[3]; [8],0.5 µg/mL
same,LD50,[4],5.8 mg/kg
same,selectivity for transport of divalent over monovalent cations (in words),[5],substantially selective for the transport of divalent over monovalent cations; also recorded: not complete
same,Bioassay,[1],1060 µg/mL
same,Ca^++ Influx,bovine spermatozoa; [Mg^++ ]/[Ca^++ ] 0,3.5 nmole Ca^++ min × mg protein
same,Ca^++ Influx,bovine spermatozoa; [Mg^++ ]/[Ca^++ ] 5,2.0 nmole Ca^++ min × mg protein
same,Ca^++ Influx,bovine spermatozoa; [Mg^++ ]/[Ca^++ ] 10,1.2 nmole Ca^++ min × mg protein
same,Ca^++ Influx,bovine spermatozoa; [Mg^++ ]/[Ca^++ ] 20,0.5 nmole Ca^++ min × mg protein
same,induction of acrosome reaction (in words),mammalian sperm [6],induces the acrosome reaction
same,Time Until Acrosome Reaction,Cuinea Pig Sperm,30 min
same,activation of sperm motility (in words),mammalian sperm [7],activates the motility
"CNc1c(Br)cc2oc(CC3OC4(CCC3C)OC(C(C)C(=O)c3cc(Br)c[nH]3)C(C)CC4C)nc2c1C(=O)O (stereo not drawn) [4,23-dibromo-A-23187 (free acid), 6-bromo-5-(methylamino)-2-[[3β,9α,11β-trimethyl-8-[1α-methyl-2-oxo-2-(4-bromo-1H-pyrrol-2-yl)ethyl]-1,7-dioxaspiro[5.5]undec-2β-yl]methyl]-4-benzoxazolecarboxylic acid]",half effective concentration (Ic 50),[3]; ATPase induced by CaCl2,0.9 µg/mL
same,half effective concentration (Ic 50),[3]; [8],0.5 µg/mL
same,Bioassay,[1],940 µg/mL
"CNc1c(Br)cc2oc(CC3OC4(CCC3C)OC(C(C)C(=O)c3ccc[nH]3)C(C)CC4C)nc2c1C(=O)O (stereo not drawn) [4-bromo-A-23187 (free acid), 6-bromo(or chloro)-5-(methylamino)-2-[[3β,9α,-11β-trimethyl-8-[1α-methyl-2-oxo-2-(1H-pyrrol-2-yl)ethyl]-1,7-dioxaspiro[5.5]undec-2β-yl]-methyl]-4-benzoxazolecarboxylic acid]",Motility Index,Bovine Sperum,5
same,half effective concentration (Ic 50),[3]; ATPase induced by CaCl2,0.9 µg/mL
same,half effective concentration (Ic 50),[3]; [8],0.3 µg/mL
same,LD50,[4],11.9 mg/kg
same,Bioassay,[1],835 µg/mL
same,activation at 10 µM,"[2]; Cavia porcellus, read-out: mean increase in contractile tension, percentage of the maximal contractile tension elicited by norepinephrine (10^-4 M)",48%
same,Ca^++ Influx,bovine spermatozoa; [Mg^++ ]/[Ca^++ ] 0,3.4 nmole Ca^++ min × mg protein
same,Ca^++ Influx,bovine spermatozoa; [Mg^++ ]/[Ca^++ ] 20,3.4 nmole Ca^++ min × mg protein
same,Ca^++ Influx,bovine spermatozoa; [Mg^++ ]/[Ca^++ ] 40,3.4 nmole Ca^++ min × mg protein
same,Ca^++ Influx,bovine spermatozoa; [Mg^++ ]/[Ca^++ ] 80,0.5 nmole Ca^++ min × mg protein
same,effectiveness of Mg^++ in inhibiting the induced influx of Ca^++ (in words),bovine spermatozoa; compared with comparable dosage of A-23187,much less effective
same,Time Until Acrosome Reaction,Cuinea Pig Sperm,30 min
"CNc1c(Cl)cc2oc(CC3OC4(CCC3C)OC(C(C)C(=O)c3ccc[nH]3)C(C)CC4C)nc2c1C(=O)O (stereo not drawn) [4-chloro-A-23187 (free acid), 6-bromo(or chloro)-5-(methylamino)-2-[[3β,9α,-11β-trimethyl-8-[1α-methyl-2-oxo-2-(1H-pyrrol-2-yl)ethyl]-1,7-dioxaspiro[5.5]undec-2β-yl]-methyl]-4-benzoxazolecarboxylic acid]",half effective concentration (Ic 50),[3]; ATPase induced by CaCl2,10 µg/mL
same,half effective concentration (Ic 50),[3]; [8],0.2 µg/mL
same,LD50,[4],10.5 mg/kg
same,Bioassay,[1],298 µg/mL
